Tested on: K86415-001-R-J1-PDC complex spheroids, viability
Assay: Anticancer human tumor K86415-001-R-J1-PDC patient-derived lung adenocarcinoma cell line growth inhibition [RAS]
Details: for IC50: curve of first compound; for viability, T/C: stronger effect = lower value
How it was run: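 Agents were tested in combination matrices in half-log decrements from a top concentration at or near clinical Cmax (10 microM if undetermined). Targets were multi-cell spheroids of tumour lines plus HUVEC and MSC stromal cells.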

[1] = second compound 0.0316 µM, first compound 0.0316 µM
[2] = second compound 0.0316 µM, first compound 0.1 µM
[3] = second compound 0.0316 µM, first compound 0.316 µM
[4] = second compound 0.0316 µM, first compound 1 µM
[5] = second compound 0.0316 µM, first compound 3.16 µM
[6] = second compound 0.0316 µM, first compound 10 µM
[7] = second compound 0.1 µM, first compound 0.0316 µM
[8] = second compound 0.1 µM, first compound 0.1 µM
[9] = second compound 0.1 µM, first compound 0.316 µM
[10] = second compound 0.1 µM, first compound 1 µM
[11] = second compound 0.1 µM, first compound 3.16 µM
[12] = second compound 0.1 µM, first compound 10 µM
[13] = second compound 0.316 µM, first compound 0.0316 µM
[14] = second compound 0.316 µM, first compound 0.1 µM
[15] = second compound 0.316 µM, first compound 0.316 µM
[16] = second compound 0.316 µM, first compound 1 µM
[17] = second compound 0.316 µM, first compound 3.16 µM
[18] = second compound 0.316 µM, first compound 10 µM
[19] = second compound 1 µM, first compound 0.0316 µM
[20] = second compound 1 µM, first compound 0.1 µM
[21] = second compound 1 µM, first compound 0.316 µM
[22] = second compound 1 µM, first compound 1 µM
[23] = second compound 1 µM, first compound 3.16 µM
[24] = second compound 1 µM, first compound 10 µM
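Further: spheroids exposed to agents for seven days before readout.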

CC(Nc1ccc2c(c1)OCCn1cc(N3C(=O)OCC3C(F)F)nc1-2)C(N)=O (centres undefined) + C=CC(=O)N1CCN(c2nc(OCC3CCCN3C)nc3c(F)c(-c4nc(N)cc(C)c4C(F)(F)F)c(Cl)cc23)C(C)C1
IC50 (second compound 0.00316 µM): < 31.6 nM | IC50 (second compound 0.01 µM): < 31.6 nM | IC50 (second compound 0.0316 µM): < 31.6 nM | IC50 (second compound 0.1 µM): < 31.6 nM | IC50 (second compound 0.316 µM): < 31.6 nM | IC50 (second compound 1 µM): < 31.6 nM | viability, T/C (second compound 0.00316 µM, first compound 0.0316 µM): 12.4% | viability, T/C (second compound 0.00316 µM, first compound 0.1 µM): 11% | viability, T/C (second compound 0.00316 µM, first compound 0.316 µM): 9.71% | viability, T/C (second compound 0.00316 µM, first compound 1 µM): 13.9% | viability, T/C (second compound 0.00316 µM, first compound 3.16 µM): 8.57% | viability, T/C (second compound 0.00316 µM, first compound 10 µM): 4.65% | viability, T/C (second compound 0.01 µM, first compound 0.0316 µM): 10.6% | viability, T/C (second compound 0.01 µM, first compound 0.1 µM): 8.09% | viability, T/C (second compound 0.01 µM, first compound 0.316 µM): 7.67% | viability, T/C (second compound 0.01 µM, first compound 1 µM): 4.13% | viability, T/C (second compound 0.01 µM, first compound 3.16 µM): 2.86% | viability, T/C (second compound 0.01 µM, first compound 10 µM): 1.6% | viability, T/C [1]: 8.44% | viability, T/C [2]: 6.97% | viability, T/C [3]: 5.95% | viability, T/C [4]: 3.55% | viability, T/C [5]: 2.24% | viability, T/C [6]: 1.34% | viability, T/C [7]: 8.36% | viability, T/C [8]: 6.36% | viability, T/C [9]: 3.79% | viability, T/C [10]: 3.04% | viability, T/C [11]: 1.94% | viability, T/C [12]: 1.11% | viability, T/C [13]: 8.27% | viability, T/C [14]: 6.69% | viability, T/C [15]: 4.1% | viability, T/C [16]: 5.15% | viability, T/C [17]: 2.4% | viability, T/C [18]: 1.49% | viability, T/C [19]: 7.44% | viability, T/C [20]: 6.59% | viability, T/C [21]: 4.3% | viability, T/C [22]: 2.92% | viability, T/C [23]: 2.11% | viability, T/C [24]: 1.04%

CC(C)NCC(C(=O)N1CCN(c2ncnc3c2C(C)CC3O)CC1)c1ccc(Cl)cc1 (centres undefined) + C#Cc1c(F)ccc2cc(O)cc(-c3ncc4c(N5CC6CCC(C5)N6)nc(OCC56CCCN5CC(F)C6)nc4c3F)c12
IC50 (second compound 0.0316 µM): 7490 nM | IC50 (second compound 0.1 µM): 7290 nM | IC50 (second compound 0.316 µM): 7560 nM | IC50 (second compound 1 µM): 4250 nM | IC50 (second compound 3.16 µM): < 31.6 nM | IC50 (second compound 10 µM): < 31.6 nM | viability, T/C [1]: 109% | viability, T/C [2]: 106% | viability, T/C [3]: 106% | viability, T/C [4]: 89.6% | viability, T/C [5]: 72.3% | viability, T/C [6]: 42.6% | viability, T/C [7]: 113% | viability, T/C [8]: 103% | viability, T/C [9]: 113% | viability, T/C [10]: 90.4% | viability, T/C [11]: 68.7% | viability, T/C [12]: 43.1% | viability, T/C [13]: 97% | viability, T/C [14]: 94.1% | viability, T/C [15]: 90.9% | viability, T/C [16]: 84.7% | viability, T/C [17]: 64.4% | viability, T/C [18]: 45.3% | viability, T/C [19]: 74.4% | viability, T/C [20]: 62% | viability, T/C [21]: 56.2% | viability, T/C [22]: 65.1% | viability, T/C [23]: 54.8% | viability, T/C [24]: 39.3% | viability, T/C (second compound 3.16 µM, first compound 0.0316 µM): 35.2% | viability, T/C (second compound 3.16 µM, first compound 0.1 µM): 38.2% | viability, T/C (second compound 3.16 µM, first compound 0.316 µM): 26.3% | viability, T/C (second compound 3.16 µM, first compound 1 µM): 25.8% | viability, T/C (second compound 3.16 µM, first compound 3.16 µM): 38.4% | viability, T/C (second compound 3.16 µM, first compound 10 µM): 25.6% | viability, T/C (second compound 10 µM, first compound 0.0316 µM): 18.7% | viability, T/C (second compound 10 µM, first compound 0.1 µM): 15.8% | viability, T/C (second compound 10 µM, first compound 0.316 µM): 16.4% | viability, T/C (second compound 10 µM, first compound 1 µM): 24.7% | viability, T/C (second compound 10 µM, first compound 3.16 µM): 16.9% | viability, T/C (second compound 10 µM, first compound 10 µM): 5.88%

Reference: PubChem BioAssay AID2060893 (Molecular Pharmacology Branch, DTP, NCI, 2025)
